The test system of the assay is Botrytis cinerea. The assay is described as follows: Antimicrobial bioassay (Botrytis cinerea): growth inhibition by OD600. The format is cell-based. To be noted: for Activity ratio to NCR13a: anti-Botrytis cinerea activity (IC50) relative to comparator NCR13a; for anti-Botrytis activities relative to NCR13a: Botrytis cinerea growth, comparison with NCR13a. As for the experimental part:
The antimicrobial effect of the NCR13 variant peptides (NVPs) of the present disclosure were evaluated against the fungal species, Botrytis cinerea. […] The growth of Botrytis cinerea was then assessed via OD600 nm after incubation with a given NVP at room temperature after 96 hours. The IC50 of each peptide analyzed is shown in ppm.
The antimicrobial effect of the NCR13 variant peptides (NVPs) of the present disclosure were evaluated against the fungal species, Botrytis cinerea. […] The growth of Botrytis cinerea was then assessed via OD600 nm after incubation with a given NVP at room temperature after 96 hours.
The NVPs assessed were as follows: NVPM3 (+L) (SEQ ID NO: 5); NVPM5 (+M) (SEQ ID NO: 7); NVPM6 (+F) (SEQ ID NO: 8); NVPM7 (+W) (SEQ ID NO: 9); NVPM9 (+S) (SEQ ID NO: 11); NVPM11 (+Y) (SEQ ID NO: 13); NVPM14 (+D) (SEQ ID NO: 16); and NVPM15 (+E) (SEQ ID NO: 17).
NVPs having an amino acid sequence of SEQ ID NOs: 5, 7, 8, 9, 11, 13, 16, and 17 were generated as described above in Example 1. The peptide, NCR13a, having an amino acid sequence of: […] (SEQ ID NO: 2) was selected as a comparator peptide, with which the antifungal activity of the foregoing NVPs was compared.
The fungal species was Botrytis cinerea was cultured in potato dextrose agar plates. Fungal spores were collected from the agar plates and suspended into de-ionized water, followed by enumeration in a Petroff-Hausser counting chamber (VWR).
The 96-well plates were incubated at room temperature for 96 hours without shaking. The OD600 of the culture plate was determined using SpectraMax plate reader. Relative OD600 was determined by normalizing cell growth to control wells containing neither NVPs nor NCR13a. The OD600 was used to determine IC50.

From US11713341B1, “Antimicrobial NCR13 variant peptides” (Vestaron Corporation, priority 2022, dated 2023) come the findings set out here.

Where a SMILES comes first, the peptide text is derived from it.

As to `CC[C@H](C)[C@H](NC(=O)[C@H](CS)NC(=O)[C@H](CCCCN)NC(=O)[C@@H]1CCCN1C(=O)[C@@H](NC(=O)[C@H](CCCCN)NC(=O)[C@@H]1CCCN1C(=O)[C@H](CCCCN)NC(=O)[C@H](CCCNC(=N)N)NC(=O)[C@H](CS)NC(=O)[C@H](C)NC(=O)[C@H](Cc1ccccc1)NC(=O)[C@H](CCCCN)NC(=O)[C@H](CCCCN)NC(=O)[C@H](CS)NC(=O)[C@H](CC(=O)O)NC(=O)[C@H](CCCCN)NC(=O)[C@H](CC(=O)O)NC(=O)[C@H](CO)NC(=O)[C@H](CCC(N)=O)NC(=O)[C@H](CS)NC(=O)[C@@H]1CCCN1C(=O)[C@H](CCCCN)NC(=O)[C@@H](NC(=O)CN)[C@@H](C)O)C(C)C)C(=O)N[C@@H](CC(N)=O)C(=O)NCC(=O)N[C@@H](Cc1ccccc1)C(=O)N[C@@H](CS)C(=O)N[C@@H](CCCCN)C(=O)N[C@@H](CS)C(=O)N[C@H](C(=O)N[C@@H](CCCNC(=N)N)C(=O)O)C(C)C` [NCR13a, reference compound] (H-GTKPCQSDKDCKKFACRKPKVPKCINGFCKCVR-OH; N-terminus and C-terminus assumed), the “Activity ratio to NCR13a” value came out at 1. Also, the “IC50 (ppm)” value (amount required to achieve IC50 in Botrytis cinerea cells, growth by OD600 after 96 hours at room temperature in synthetic fungal medium, 2-fold serial dilution) was determined as 2.36 ppm.
Take `CC[C@H](C)[C@H](NC(=O)[C@H](CS)NC(=O)[C@H](CCCCN)NC(=O)[C@@H]1CCCN1C(=O)[C@@H](NC(=O)[C@H](CCCCN)NC(=O)[C@@H]1CCCN1C(=O)[C@H](CCCCN)NC(=O)[C@H](CCCNC(=N)N)NC(=O)[C@H](CS)NC(=O)[C@H](C)NC(=O)[C@H](Cc1ccccc1)NC(=O)[C@H](CCCCN)NC(=O)[C@H](CCCCN)NC(=O)[C@H](CS)NC(=O)[C@H](CC(=O)O)NC(=O)[C@H](CCCCN)NC(=O)[C@H](CC(=O)O)NC(=O)[C@H](CO)NC(=O)[C@H](CCC(N)=O)NC(=O)[C@H](CS)NC(=O)[C@@H]1CCCN1C(=O)[C@H](CCCCN)NC(=O)[C@@H](NC(=O)[C@H](C)N)[C@@H](C)O)C(C)C)C(=O)N[C@@H](CC(N)=O)C(=O)NCC(=O)N[C@@H](Cc1ccccc1)C(=O)N[C@@H](CS)C(=O)N[C@@H](CCCCN)C(=O)N[C@@H](CS)C(=O)N[C@H](C(=O)N[C@@H](CCCNC(=N)N)C(=O)O)C(C)C` [NVPM1] (H-ATKPCQSDKDCKKFACRKPKVPKCINGFCKCVR-OH; N-terminus and C-terminus assumed): the “Activity ratio to NCR13a” value was 2.43.
On to `CC[C@H](C)[C@H](NC(=O)[C@H](CS)NC(=O)[C@H](CCCCN)NC(=O)[C@@H]1CCCN1C(=O)[C@@H](NC(=O)[C@H](CCCCN)NC(=O)[C@@H]1CCCN1C(=O)[C@H](CCCCN)NC(=O)[C@H](CCCNC(=N)N)NC(=O)[C@H](CS)NC(=O)[C@H](C)NC(=O)[C@H](Cc1ccccc1)NC(=O)[C@H](CCCCN)NC(=O)[C@H](CCCCN)NC(=O)[C@H](CS)NC(=O)[C@H](CC(=O)O)NC(=O)[C@H](CCCCN)NC(=O)[C@H](CC(=O)O)NC(=O)[C@H](CO)NC(=O)[C@H](CCC(N)=O)NC(=O)[C@H](CS)NC(=O)[C@@H]1CCCN1C(=O)[C@H](CCCCN)NC(=O)[C@@H](NC(=O)[C@@H](N)CC(C)C)[C@@H](C)O)C(C)C)C(=O)N[C@@H](CC(N)=O)C(=O)NCC(=O)N[C@@H](Cc1ccccc1)C(=O)N[C@@H](CS)C(=O)N[C@@H](CCCCN)C(=O)N[C@@H](CS)C(=O)N[C@H](C(=O)N[C@@H](CCCNC(=N)N)C(=O)O)C(C)C` [NVPM3] (H-LTKPCQSDKDCKKFACRKPKVPKCINGFCKCVR-OH; N-terminus and C-terminus assumed), for which the “anti-Botrytis activities relative to NCR13a” value is recorded as “improved anti-Botrytis activities relative to NCR13a” and the “Activity ratio to NCR13a” value turned out to be 4.14.
Turning to `CC[C@H](C)[C@H](NC(=O)[C@H](CS)NC(=O)[C@H](CCCCN)NC(=O)[C@@H]1CCCN1C(=O)[C@@H](NC(=O)[C@H](CCCCN)NC(=O)[C@@H]1CCCN1C(=O)[C@H](CCCCN)NC(=O)[C@H](CCCNC(=N)N)NC(=O)[C@H](CS)NC(=O)[C@H](C)NC(=O)[C@H](Cc1ccccc1)NC(=O)[C@H](CCCCN)NC(=O)[C@H](CCCCN)NC(=O)[C@H](CS)NC(=O)[C@H](CC(=O)O)NC(=O)[C@H](CCCCN)NC(=O)[C@H](CC(=O)O)NC(=O)[C@H](CO)NC(=O)[C@H](CCC(N)=O)NC(=O)[C@H](CS)NC(=O)[C@@H]1CCCN1C(=O)[C@H](CCCCN)NC(=O)[C@@H](NC(=O)[C@@H](N)CCSC)[C@@H](C)O)C(C)C)C(=O)N[C@@H](CC(N)=O)C(=O)NCC(=O)N[C@@H](Cc1ccccc1)C(=O)N[C@@H](CS)C(=O)N[C@@H](CCCCN)C(=O)N[C@@H](CS)C(=O)N[C@H](C(=O)N[C@@H](CCCNC(=N)N)C(=O)O)C(C)C` [NVPM5] (H-MTKPCQSDKDCKKFACRKPKVPKCINGFCKCVR-OH; N-terminus and C-terminus assumed), the “anti-Botrytis activities relative to NCR13a” value is on record as “improved anti-Botrytis activities relative to NCR13a” and the “Activity ratio to NCR13a” value came out at 2.74.
In the same order, the values of `CC[C@H](C)[C@H](NC(=O)[C@H](CS)NC(=O)[C@H](CCCCN)NC(=O)[C@@H]1CCCN1C(=O)[C@@H](NC(=O)[C@H](CCCCN)NC(=O)[C@@H]1CCCN1C(=O)[C@H](CCCCN)NC(=O)[C@H](CCCNC(=N)N)NC(=O)[C@H](CS)NC(=O)[C@H](C)NC(=O)[C@H](Cc1ccccc1)NC(=O)[C@H](CCCCN)NC(=O)[C@H](CCCCN)NC(=O)[C@H](CS)NC(=O)[C@H](CC(=O)O)NC(=O)[C@H](CCCCN)NC(=O)[C@H](CC(=O)O)NC(=O)[C@H](CO)NC(=O)[C@H](CCC(N)=O)NC(=O)[C@H](CS)NC(=O)[C@@H]1CCCN1C(=O)[C@H](CCCCN)NC(=O)[C@@H](NC(=O)[C@@H](N)Cc1ccccc1)[C@@H](C)O)C(C)C)C(=O)N[C@@H](CC(N)=O)C(=O)NCC(=O)N[C@@H](Cc1ccccc1)C(=O)N[C@@H](CS)C(=O)N[C@@H](CCCCN)C(=O)N[C@@H](CS)C(=O)N[C@H](C(=O)N[C@@H](CCCNC(=N)N)C(=O)O)C(C)C` [NVPM6] (H-FTKPCQSDKDCKKFACRKPKVPKCINGFCKCVR-OH; N-terminus and C-terminus assumed) are “improved anti-Botrytis activities relative to NCR13a” and 1.82.
As for `CC[C@H](C)[C@H](NC(=O)[C@H](CS)NC(=O)[C@H](CCCCN)NC(=O)[C@@H]1CCCN1C(=O)[C@@H](NC(=O)[C@H](CCCCN)NC(=O)[C@@H]1CCCN1C(=O)[C@H](CCCCN)NC(=O)[C@H](CCCNC(=N)N)NC(=O)[C@H](CS)NC(=O)[C@H](C)NC(=O)[C@H](Cc1ccccc1)NC(=O)[C@H](CCCCN)NC(=O)[C@H](CCCCN)NC(=O)[C@H](CS)NC(=O)[C@H](CC(=O)O)NC(=O)[C@H](CCCCN)NC(=O)[C@H](CC(=O)O)NC(=O)[C@H](CO)NC(=O)[C@H](CCC(N)=O)NC(=O)[C@H](CS)NC(=O)[C@@H]1CCCN1C(=O)[C@H](CCCCN)NC(=O)[C@@H](NC(=O)[C@@H](N)Cc1c[nH]c2ccccc12)[C@@H](C)O)C(C)C)C(=O)N[C@@H](CC(N)=O)C(=O)NCC(=O)N[C@@H](Cc1ccccc1)C(=O)N[C@@H](CS)C(=O)N[C@@H](CCCCN)C(=O)N[C@@H](CS)C(=O)N[C@H](C(=O)N[C@@H](CCCNC(=N)N)C(=O)O)C(C)C` [NVPM7] (H-WTKPCQSDKDCKKFACRKPKVPKCINGFCKCVR-OH; N-terminus and C-terminus assumed), the “anti-Botrytis activities relative to NCR13a” value was “improved anti-Botrytis activities relative to NCR13a” and the “Activity ratio to NCR13a” value is 2.71.
In the same order, the values of `CC[C@H](C)[C@H](NC(=O)[C@H](CS)NC(=O)[C@H](CCCCN)NC(=O)[C@@H]1CCCN1C(=O)[C@@H](NC(=O)[C@H](CCCCN)NC(=O)[C@@H]1CCCN1C(=O)[C@H](CCCCN)NC(=O)[C@H](CCCNC(=N)N)NC(=O)[C@H](CS)NC(=O)[C@H](C)NC(=O)[C@H](Cc1ccccc1)NC(=O)[C@H](CCCCN)NC(=O)[C@H](CCCCN)NC(=O)[C@H](CS)NC(=O)[C@H](CC(=O)O)NC(=O)[C@H](CCCCN)NC(=O)[C@H](CC(=O)O)NC(=O)[C@H](CO)NC(=O)[C@H](CCC(N)=O)NC(=O)[C@H](CS)NC(=O)[C@@H]1CCCN1C(=O)[C@H](CCCCN)NC(=O)[C@@H](NC(=O)[C@@H](N)CO)[C@@H](C)O)C(C)C)C(=O)N[C@@H](CC(N)=O)C(=O)NCC(=O)N[C@@H](Cc1ccccc1)C(=O)N[C@@H](CS)C(=O)N[C@@H](CCCCN)C(=O)N[C@@H](CS)C(=O)N[C@H](C(=O)N[C@@H](CCCNC(=N)N)C(=O)O)C(C)C` [NVPM9] (H-STKPCQSDKDCKKFACRKPKVPKCINGFCKCVR-OH; N-terminus and C-terminus assumed) are “improved anti-Botrytis activities relative to NCR13a” and 1.66.
